Experimental data: ChEMBL document CHEMBL2321663, “Alkaloids from Sri Lankan curry-leaf (Murraya koenigii) display melanogenesis inhibitory activity: structures of karapinchamines A and B” (Bioorg Med Chem, 2013)

Key:
[1] = target: T1, Tyrosinase (Agaricus bisporus) (UniProt O42713); test: Inhibition of mushroom tyrosinase using L-DOPA as substrate after at 3 uM after 5 mins relative to control
T1 sequence (whole entry): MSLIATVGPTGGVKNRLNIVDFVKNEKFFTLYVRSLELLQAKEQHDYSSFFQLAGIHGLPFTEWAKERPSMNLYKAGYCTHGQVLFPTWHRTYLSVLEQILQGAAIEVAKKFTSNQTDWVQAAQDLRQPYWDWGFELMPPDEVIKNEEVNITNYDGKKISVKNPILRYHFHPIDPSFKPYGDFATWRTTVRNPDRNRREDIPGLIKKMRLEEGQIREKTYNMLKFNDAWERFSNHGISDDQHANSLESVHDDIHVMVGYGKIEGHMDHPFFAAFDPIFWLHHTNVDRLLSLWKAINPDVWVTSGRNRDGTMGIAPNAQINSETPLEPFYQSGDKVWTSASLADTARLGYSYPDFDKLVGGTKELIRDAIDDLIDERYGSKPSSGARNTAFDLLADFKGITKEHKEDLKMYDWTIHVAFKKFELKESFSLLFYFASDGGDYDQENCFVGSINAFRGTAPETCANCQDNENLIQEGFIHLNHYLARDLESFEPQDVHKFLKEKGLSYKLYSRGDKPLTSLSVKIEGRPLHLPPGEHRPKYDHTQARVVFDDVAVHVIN

[2] = Cytotoxicity against mouse theophylline-induced B16-4A5 cells assessed as cell viability at 3 uM after 72 hrs by WST8 assay relative to control; format: cell-based; conditions: read-out: Activity
[3] = target: T1, Tyrosinase (Agaricus bisporus); test: Inhibition of mushroom tyrosinase using L-DOPA as substrate after at 100 uM after 5 mins relative to control
[4] = Cytotoxicity against mouse theophylline-induced B16-4A5 cells assessed as cell viability at 30 uM after 72 hrs by WST8 assay relative to control; format: cell-based; conditions: read-out: Activity
[5] = Inhibition of theophylline-induced melanogenesis in mouse B16-4A5 cells after 72 hrs by spectrophotometric analysis relative to control; format: functional, cell-based
[6] = target: T1, Tyrosinase (Agaricus bisporus); test: Inhibition of mushroom tyrosinase using L-DOPA as substrate after at 30 uM after 5 mins relative to control
[7] = Inhibition of theophylline-induced melanogenesis in mouse B16-4A5 cells at 3 uM after 72 hrs by spectrophotometric analysis relative to control; format: functional; conditions: B16-4A5, 72 h
[8] = Inhibition of theophylline-induced melanogenesis in mouse B16-4A5 cells at 10 uM after 72 hrs by spectrophotometric analysis relative to control; format: functional; conditions: B16-4A5, 72 h
[9] = target: T1, Tyrosinase (Agaricus bisporus); test: Inhibition of mushroom tyrosinase using L-DOPA as substrate after at 10 uM after 5 mins relative to control
[10] = Cytotoxicity against mouse theophylline-induced B16-4A5 cells assessed as cell viability at 1 uM after 72 hrs by WST8 assay relative to control; format: cell-based; conditions: read-out: Activity
[11] = Inhibition of theophylline-induced melanogenesis in mouse B16-4A5 cells at 1 uM after 72 hrs by spectrophotometric analysis relative to control; format: functional; conditions: B16-4A5, 72 h
[12] = target: T1, Tyrosinase (Agaricus bisporus); test: Inhibition of mushroom tyrosinase using L-DOPA as substrate after at 1 uM after 5 mins relative to control
[13] = Inhibition of theophylline-induced melanogenesis in mouse B16-4A5 cells at 30 uM after 72 hrs by spectrophotometric analysis relative to control; format: functional; conditions: B16-4A5, 72 h
[14] = Cytotoxicity against mouse theophylline-induced B16-4A5 cells assessed as cell viability at 10 uM after 72 hrs by WST8 assay relative to control; format: cell-based; conditions: read-out: Activity
[15] = Inhibition of theophylline-induced melanogenesis in mouse B16-4A5 cells at 300 uM after 72 hrs by spectrophotometric analysis relative to control; format: functional; conditions: B16-4A5, 72 h
[16] = Inhibition of theophylline-induced melanogenesis in mouse B16-4A5 cells at 100 uM after 72 hrs by spectrophotometric analysis relative to control; format: functional; conditions: B16-4A5, 72 h
[17] = Inhibition of theophylline-induced melanogenesis in mouse B16-4A5 cells at 1000 uM after 72 hrs by spectrophotometric analysis relative to control; format: functional; conditions: B16-4A5, 72 h

| inhibition [1] [%] | inhibition [3] [%] | IC50 [5] [µM] | inhibition [6] [%] | inhibition [9] [%] | inhibition [12] [%] | Compound | viability at 72 h, 3 µM [2] [%] | viability at 72 h, 30 µM [4] [%] | inhibition at 3 µM [7] [%] | inhibition at 10 µM [8] [%] | viability at 72 h, 1 µM [10] [%] | inhibition at 1 µM [11] [%] | inhibition at 30 µM [13] [%] | viability at 72 h, 10 µM [14] [%] | inhibition at 300 µM [15] [%] | inhibition at 100 µM [16] [%] | inhibition at 1000 µM [17] [%] |
| --- | --- | --- | --- | --- | --- | --- | --- | --- | --- | --- | --- | --- | --- | --- | --- | --- | --- |
| -0.7 | -3.4 | 2.2 | -0.3 | -1.1 | 7.4 | CC(C)=CCCC1(C)C=Cc2c(ccc3c2[nH]c2ccc(C)cc23)O1 (centres undefined) | 117 | 63.9 | 60 | 85.2 | 110 | 25.9 | 78.4 | 103 | – | – | – |
| -2.8 | -0.8 | 3.8 | 2.7 | -2.8 | -1 | COc1cccc2c1[nH]c1c3c(c(C)cc12)OC(C)(CCC=C(C)C)C=C3 (centres undefined) | 97.3 | 46.3 | 40.4 | 71.8 | 101 | 6.8 | – | 73.8 | – | – | – |
| 0.1 | 4.2 | 15.7 | 0.9 | 0.1 | 0.1 | COc1ccc2c(c1)[nH]c1c3c(c(C)cc12)O[C@](C)(CCC=C(C)C)C=C3 | 98.7 | 66.3 | 8.7 | 40.8 | 105 | 10.9 | 58.3 | 94.9 | – | – | – |
| 0.3 | 3.3 | 13.5 | 0.9 | 0.5 | 0.4 | Oc1cccc2[nH]c3ccccc3c12 | 100 | 131 | 32.9 | 36.1 | 101 | 24.9 | 66.9 | 104 | – | – | – |
| -0.6 | 20.2 | 2.9 | 15.3 | 3.5 | -1.3 | Cc1cc2c3ccc(O)cc3n3c2c2c1O[C@@]1(C)CC[C@H]([C@H]2C1)C3(C)C (relative stereo) | 94.4 | 71.1 | 50.8 | 66 | 101 | 26.9 | 74.3 | 76.8 | – | – | – |
| – | – | 174 | – | – | – | OC[C@H]1O[C@@H](Oc2ccc(O)cc2)[C@H](O)[C@@H](O)[C@@H]1O [ARBUTIN] | – | – | – | – | – | – | 20.4 | – | 61.5 | 38.1 | 83.7 |
| -4.4 | -1.1 | 4.1 | -6.4 | -4.3 | -6.5 | COc1ccc2c([nH]c3cc(O)c(C)cc32)c1C/C=C(\C)CCC=C(C)C [EUCHRESTINE B] | 102 | 1.9 | 40.6 | 74.2 | 105 | 18.2 | – | 83.7 | – | – | – |
| 2.7 | 16.1 | 8.3 | 5.9 | 2.3 | 1 | CC(C)=CCC/C(C)=C/Cc1c(O)ccc2[nH]c3ccc(C)cc3c12 [EUSTIFOLINE C] | 96.5 | 9.9 | 25.2 | 55.9 | 104 | 19.7 | – | 79.2 | – | – | – |
| -1 | 4.3 | 1.2 | 1 | -0.1 | 0.7 | COc1ccc2[nH]c3c4c(c(C)cc3c2c1)OC(C)(C)C=C4 [KOENIMBINE] | 92.4 | 37.9 | 77 | 86.2 | 114 | 42.5 | – | 66.6 | – | – | – |
| -3.2 | 6.2 | 1.4 | 2.7 | -0.4 | -1.3 | CC(C)=CCCC1(C)C=Cc2c(c(C)cc3c2[nH]c2ccccc23)O1 (centres undefined) [MAHANIMBINE] | 68.7 | 35.1 | 63.9 | – | 94.3 | 43.3 | – | 34.4 | – | – | – |

| Compound | inhibition [1] [%] | inhibition [3] [%] | IC50 [5] [µM] | inhibition [6] [%] | inhibition [9] [%] | inhibition [12] [%] | viability at 72 h, 3 µM [2] [%] | viability at 72 h, 30 µM [4] [%] | inhibition at 3 µM [7] [%] | inhibition at 10 µM [8] [%] | viability at 72 h, 1 µM [10] [%] | inhibition at 1 µM [11] [%] | inhibition at 30 µM [13] [%] | viability at 72 h, 10 µM [14] [%] | inhibition at 300 µM [15] [%] | inhibition at 100 µM [16] [%] | inhibition at 1000 µM [17] [%] |
| --- | --- | --- | --- | --- | --- | --- | --- | --- | --- | --- | --- | --- | --- | --- | --- | --- | --- |
| c1ccc2c(c1)[nH]c1ccccc12 [CARBAZOLE] | -1.8 | 0.1 | > 100 | 1.7 | -2.2 | 1 | 108 | 94.2 | 33.5 | 36.8 | 108 | 31.3 | 33.8 | 105 | – | – | – |
